The values below come from article doi:10.1101/2021.10.25.465661v1 (biorxiv, 2021).

The assay deals with T1, Q-eTud34 (Drosophila melanogaster, UniProt Q9VE55).
T1 sequence (Q9VE55 959-1515): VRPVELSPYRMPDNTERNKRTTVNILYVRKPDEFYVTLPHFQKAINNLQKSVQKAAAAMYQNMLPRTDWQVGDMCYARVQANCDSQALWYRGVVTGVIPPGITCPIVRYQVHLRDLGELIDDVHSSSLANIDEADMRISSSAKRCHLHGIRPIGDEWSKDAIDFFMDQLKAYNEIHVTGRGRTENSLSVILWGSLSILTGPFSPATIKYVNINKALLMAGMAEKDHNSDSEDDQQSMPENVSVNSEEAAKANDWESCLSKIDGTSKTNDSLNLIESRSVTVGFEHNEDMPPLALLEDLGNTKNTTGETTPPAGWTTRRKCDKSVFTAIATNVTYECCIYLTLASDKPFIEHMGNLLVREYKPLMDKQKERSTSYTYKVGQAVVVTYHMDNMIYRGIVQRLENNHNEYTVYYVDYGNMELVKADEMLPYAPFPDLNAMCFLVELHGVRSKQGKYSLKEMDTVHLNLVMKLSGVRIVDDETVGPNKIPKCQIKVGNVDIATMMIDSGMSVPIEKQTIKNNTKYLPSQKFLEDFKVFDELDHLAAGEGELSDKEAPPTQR
Put plainly: thermal shift assay. It counts as binding. Particulars: read-out: Tm increase at 10 mM.

In the case of `CN(C)C(=N)NCCC[C@H](N)C(=O)O` [aDMA], the ΔTm at 10000 µM came to 0.9 °C.
